Laboratory results as given in patent US10065965B2, “Imidazo[1,2-B][1,2,4]triazine derivatives as antiparasitic agents” (GlaxoSmithKline Intellectual Property Development Limited, priority 2015, dated 2018).
Values after ≈ are worked out from the molar mass of the structure shown.

What was measured:
Trypanosoma cruzi [1] = assay: Assay 2 Trypanosoma cruzi intracellular assay (infected Vero cells); format: cell-based; details: 72 h, read-out: pEC50 value against Trypanosoma cruzi (converted)
Method: Compounds were dispensed into black 384-well assay plates (Corning) by acoustic dispensing (LabCyte ECHO). For potency determinations, ten-point one in three dilution curves were generated, with a top concentration of 50 μM. Vero cells were infected overnight with T. cruzi trypomastigotes in T225 tissue culture flasks at a multiplicity of infection of 5. Next, any remaining free trypomastigotes were washed away with serum free MEM media and the infected Vero cells were harvested by trypsinisation. The infected Vero cells were then plated into 384-well plates containing the compounds to be tested, at 4000 cells per well in MEM media with 1% FCS. After 72 h incubation at 37° C. in presence of 5% CO2, the plates were fixed with 4% formaldehyde for 20 minutes at room temperature and stained with 5 μg/ml Hoechst 33342. The plates were imaged on a Perkin Elmer Operetta high-content imaging system using a 20× objective. Images were analysed using the Columbus system (Perkin Elmer). The image analysis algorithm first identified the Vero nuclei followed by demarcation of the cytoplasm and identification of intracellular amastigotes. This algorithm reported mean number of parasites per Vero cell and total number of Vero cells.

[2] = Assay 4 solubility assay, ChemiLuminescent Nitrogen Detection (CLND); format: physicochemical; details: phosphate buffered saline, pH 7.4, aqueous buffer, kinetic from dmso stock, pH 7.4 PBS, from 10 mM DMSO stock, 1 h at room temperature
Method: A 10 mM DMSO stock solution of the compound was prepared. Solvents and Buffers Organic solvents of HPLC grade were used. Ultra pure water (Milli-Q grade) was used. Buffers were prepared with ultra pure water and filtered using 0.45μ cameo filters. Aqueous Buffer Solution: Phosphate Buffer Saline (PBS) @ pH 7.4 was prepared from Sigma dry powder packs, P-3813. Each one was diluted to 1 liter with deionised water. The pH was checked before the solution was used II. Procedures. • a) DMSO concentration was measured. DMSO blanks and ondansetron and caffeine standards were added to the plate (column 12, A, B, C, & D for the blanks and E, F, G, & H for the standards). Plates were covered with foil. When the UV and CLND detectors baselines appeared to be stable, the CLND was zeroed. • b) Once DMSO concentration measurements were complete, a filtration plate was prepared from each parent plate by diluting 5 μl of the 10 mM DMSO stock solution to […] with pH7.4 PBS. • c) After the plates were prepared, they were covered with a plate lid and left to incubate for 1 h at room temperature. • d) Sample was filtered using MILLIPORE MultiScreen Solubility (MSSLBPC10) Filtration Plates, to NUNC V well plates. The filter plate was removed and the NUNC plate was sealed with a power seal plate seal. • e) HPLC/CLND instruments were set up and left to equilibrate. Mobile phases (MeOH:H2O 1:1, flow rate: 0.2 ml/min, sensitivity z10, Gain High). The samples were run. • f) The assay curve fit was done by linear regression and solubility values were reported in μM.

Trypanosoma cruzi [3] = assay: Assay 6 Trypanosoma cruzi intracellular assay (infected H9C2 cells); format: cell-based; details: H9c2, in Rattus norvegicus, 72 h, infected H9C2 rat cardiomyocytes, read-out: pEC50 value against Trypanosoma cruzi (converted)
Method: Compounds were dispensed into black 384-well assay plates (Greiner) by acoustic dispensing (LabCyte ECHO). For potency determinations, eleven-point, one in three dilution curves were generated, with a top concentration of 50 μM. H9C2 rat cardiomyocytes cells were dispensed in T225 tissue culture flasks and after 4 hours they were infected during 18 hours with T. cruzi trypomastigotes in the same T225 tissue culture flasks at a multiplicity of infection of 1. Next, any remaining free trypomastigotes were washed away with PBS and the infected H9C2 cells were harvested by trypsinisation. The infected H9C2 cells were then plated into 384-well plates containing the compounds to be tested, at 2500 cells per well in DMEM media with 2% FBS, 1% Penicillin/Streptomocin, 2 mM L-Glutamine, 1 mM Na Pyruvate and 25 mM HEPES. After 72 h incubation at 37° C. in presence of 5% CO2, the plates were fixed and stained with 4% formaldehyde and 2 μM Draq5 for 3 hours at room temperature. The plates were imaged on a Perkin Elmer Opera high-content imaging system using a 20× air objective. Images were analysed using the Acapella building blocks system (Perkin Elmer). The image analysis algorithm first identified the H9C2 nuclei followed by demarcation of the cytoplasm and identification of intracellular amastigotes. This algorithm reported mean number of parasites per H9C2 cell, the percentage of infected H9C2 cells and the total number of H9C2 cells.

[4] = Assay 1 intramacrophage Leishmania donovani assay, THP-1 cell count (cytotoxicity readout); format: cell-based; details: human, minimum threshold 4.3, read-out: cytotoxicity against THP-1 cells, pEC50 value (converted)
Method: (§1) The intramacrophage Leishmania assay was performed using a modified version of the method described in De Rycker et al. (Antimicrob Agents Chemother. 2013 July; 57(7):2913-22. Comparison of a high-throughput high-content intracellular Leishmania donovani assay with an axenic amastigote assay. De Rycker M, Hallyburton I, Thomas J, Campbell L, Wyllie S, Joshi D, Cameron S, Gilbert I H, Wyatt P G, Frearson J A, Fairlamb A H, Gray D W.). Procedure: 350 nl of compound was pre-dispensed into 384 well sterile intermediary plates. For single point screening, amphotericin B was added to all wells of column 24 as a positive control (final concentration 2 μM) and DMSO to column 23. For potency determinations, ten-point, one in three dilution curves were created with the highest concentration being 50 μM and on each plate a control curve of amphotericin B was included. Controls were as follows: columns 11 and 12: DMSO, columns 23 and 24: amphotericin B (final concentration 2 μM). To the intermediary plates, 35 μl of THP-1 media was added and plates were shaken for >5 min to ensure complete mixing. THP-1 cells (8,000 per well, 50 μl) were plated into black clear-bottom 384 well plates (Corning) in presence of 20 nM PMA. After 20 min at RT, the plates were incubated at 37° C. under 5% CO2 in a humidified incubator for 75 h. The cells were then washed with […] sterile phosphate buffered saline (PBS) supplemented with 1 mM CaCl2, 0.5 mM MgCl2, 0.1% (w/v) bovine serum albumin (PBS-A) and amastigotes were added to all wells at a multiplicity of infection of 5 (40,000 amastigotes per well). After 40 min at RT, plates were returned to the incubator. Amastigotes were incubated in the presence of THP-1 macrophages for 16 h. Any remaining extracellular amastigotes were subsequently removed with an overflow wash of 1 mL PBS-A per well (wash buffer is being aspirated from the top of the well as it is being dispensed) followed by addition of 25 μl of the compound pre-dilutions using a Fluidx Ipette-pro pipetting station. The final dilution of each compound was 200-fold. Plates were incubated for 96 h and then washed (250 μl PBS-A) and fixed (4% (v/v) formaldehyde-PBS, 30 min, RT). After fixation, the wells were washed with 250 μl PBS, stained (10 μg/mL DAPI, 0.4 μg mL-1 HCS Cellmask Deep Red in PBS+0.1% (v/v) Triton X-100, 30 min, RT) and washed with 250 μl PBS. Finally, PBS+0.05% (v/v) thimerosal was added to the wells, the plates were sealed and imaged on a high-content microscope (GE IN Cell 2000) using a 10× objective. Image analysis was carried out with GE IN Cell Analyzer 1000 Workstation using the “Multi Target Analysis” module. Settings for segmentation were as follows: nuclei: minimum area: 142.384 μm2, sensitivity: 81, method: top-hat; cells: characteristic area: 2500 μm2, sensitivity: 60, method: multiscale top-hat; organelles (amastigotes): granule size 1-3, 3 scales, sensitivity: 90, detection in entire cell. For each well, i) THP-1 cell count (cytotoxicity readout) and ii) average number of amastigotes per cell (potency readout) were calculated, both in terms of pEC50 values.

Leishmania donovani = assay: Assay 1 intramacrophage Leishmania donovani assay (potency readout); format: cell-based; details: amastigotes in PMA-treated THP-1 macrophages, 96 h, average number of amastigotes per cell, minimum threshold 4.3, read-out: pEC50 value against Leishmania donovani (converted)
Method: as §1

CC1CN(c2cnc3nc(-c4cc(NC(=O)N5CCCC5)ccc4F)cn3n2)CCO1 (racemic) [Example 5, (+,−)-N-(4-fluoro-3-(2-(2-methylmorpholino)imidazo[1,2-b][1,2,4]triazin-6-yl)phenyl)pyrrolidine-1-carboxamide]
EC50 (Trypanosoma cruzi [1]): 20 to 251 nM
solubility at 1 h [2]: 10 to 83 µM (≈ 4.25 to 35.3 µg/mL)
EC50 (Trypanosoma cruzi [3]): 5.01 to 631 nM

C[C@@H]1CN(c2cnc3nc(-c4cc(NC(=O)N5CCCC5)ccc4F)cn3n2)C[C@H](C)O1 (single isomer, unassigned) [Example 6]
EC50 (Trypanosoma cruzi [1]): 20 to 251 nM
solubility at 1 h [2]: 10 to 83 µM (≈ 4.39 to 36.5 µg/mL)
EC50 (Trypanosoma cruzi [3]): 5.01 to 631 nM

O=C(Nc1ccc(F)c(-c2cn3nc(-c4ccccc4)cnc3n2)c1)N1CCCC1 [Example 2, N-(4-fluoro-3-(2-phenylimidazo[1,2-b][1,2,4]triazin-6-yl)phenyl)pyrrolidine-1-carboxamide]
EC50 (Trypanosoma cruzi [1]): 20 to 251 nM
solubility at 1 h [2]: 10 to 83 µM (≈ 4.02 to 33.4 µg/mL)
EC50 (Trypanosoma cruzi [3]): 5.01 to 631 nM

O=C(Nc1ccc(F)c(-c2cn3nc(N4CCCC4)cnc3n2)c1)N1CCCC1 [Example 3, N-(4-fluoro-3-(2-(pyrrolidin-1-yl)imidazo[1,2-b][1,2,4]triazin-6-yl)phenyl)pyrrolidine-1-carboxamide]
EC50 (Trypanosoma cruzi [1]): 20 to 251 nM
solubility at 1 h [2]: 10 to 83 µM (≈ 3.95 to 32.8 µg/mL)
EC50 (Trypanosoma cruzi [3]): 5.01 to 631 nM

O=C(Nc1ccc(F)c(-c2cn3nc(N4CCCCC4)cnc3n2)c1)N1CCCC1 [Example 4, N-(4-fluoro-3-(2-(piperidin-1-yl)imidazo[1,2-b][1,2,4]triazin-6-yl)phenyl)pyrrolidine-1-carboxamide]
EC50 (Trypanosoma cruzi [1]): 20 to 251 nM
solubility at 1 h [2]: 10 to 83 µM (≈ 4.09 to 34 µg/mL)
EC50 (Trypanosoma cruzi [3]): 5.01 to 631 nM

O=C(Nc1ccc(F)c(-c2cn3nccnc3n2)c1)N1CCCC1 [Example 8, N-(4-fluoro-3-(imidazo[1,2-b][1,2,4]triazin-6-yl)phenyl)pyrrolidine-1-carboxamide]
EC50 (Trypanosoma cruzi [1]): 20 to 251 nM

O=C(Nc1ccc(F)c(-c2cn3nc(-c4ccc(CN5CCOCC5)cc4)cnc3n2)c1)N1CCCC1 [Example 18, N-(4-fluoro-3-(2-(4-(morpholinomethyl)phenyl)imidazo[1,2-b] [1,2,4]triazin-6-yl)phenyl)pyrrolidine-1-carboxamide]
EC50 at 96 h [4]: 3980 to 15800 nM
solubility at 1 h [2]: 1 to 6 µM (≈ 0.502 to 3.01 µg/mL)
EC50 (Trypanosoma cruzi [3]): 5.01 to 631 nM

O=C(Nc1ccc(F)c(-c2cn3nc(-c4cccc(CN5CCOCC5)c4)cnc3n2)c1)N1CCCC1 [Example 19, N-(4-fluoro-3-(2-(3-(morpholinomethyl)phenyl)imidazo[1,2-b] [1,2,4]triazin-6-yl)phenyl)pyrrolidine-1-carboxamide]
EC50 at 96 h [4]: 3980 to 15800 nM
solubility at 1 h [2]: 1 to 6 µM (≈ 0.502 to 3.01 µg/mL)
EC50 (Trypanosoma cruzi [3]): 5.01 to 631 nM

Cc1nn(C)cc1S(=O)(=O)Nc1ccc(F)c(-c2cn3nc(N4CCOCC4)cnc3n2)c1 [Example 34, N-(4-fluoro-3-(2-morpholinoimidazo [1,2-b][1,2,4]triazin-6-yl)phenyl)-1,3-dimethyl-1H-pyrazole-4-sulfonamide]
EC50 (Leishmania donovani): > 50100 nM
EC50 (Trypanosoma cruzi [1]): 25100 nM
EC50 (Trypanosoma cruzi [3]): 10000 to 39800 nM

COc1ccc(CNc2cnc3nc(-c4cc(NC(=O)N5CCCC5)ccc4F)cn3n2)cc1 [Example 50, N-(4-fluoro-3-(2-((4-methoxybenzyl)amino)imidazo[1,2-b][1,2,4]triazin-6-yl)phenyl) pyrrolidine-1-carboxamide]
EC50 at 96 h [4]: 3980 to 15800 nM
EC50 (Trypanosoma cruzi [3]): 5.01 to 631 nM

O=C(Nc1ccc(F)c(-c2cn3nc(-c4ccc(O)cc4)cnc3n2)c1)N1CCCC1 [Example 51, N-(4-fluoro-3-(2-(4-hydroxyphenyl)imidazo [1,2-b][1,2,4]triazin-6-yl)phenyl)pyrrolidine-1-carboxamide]
EC50 at 96 h [4]: 3980 to 15800 nM
EC50 (Trypanosoma cruzi [3]): 5.01 to 631 nM

CCOC(=O)Nc1ccc(F)c(-c2cn3nc(N4CCOCC4)cnc3n2)c1 [Example 52, ethyl (4-fluoro-3-(2-morpholinoimidazo [1,2-b][1,2,4]triazin-6-yl)phenyl)carbamate]
EC50 (Leishmania donovani): > 50100 nM
EC50 (Trypanosoma cruzi [3]): 5.01 to 631 nM

CN1CCN(c2cnc3nc(-c4cc(NC(=O)N5CCCC5)ccc4F)cn3n2)CC1 [Example 57, N-(4-fluoro-3-(2-(4-methylpiperazin-1-yl)imidazo[1,2-b][1,2,4]triazin-6-yl)phenyl) pyrrolidine-1-carboxamide]
solubility at 1 h [2]: 100 to 416 µM (≈ 42.4 to 177 µg/mL)
EC50 (Trypanosoma cruzi [3]): 5.01 to 631 nM

O=C(Nc1cnc2nc(-c3cc(NC(=O)N4CCCC4)ccc3F)cn2n1)C1CC1 [Example 58, N-(3-(2-(cyclopropane-carboxamido)imidazo [1,2-b][1,2,4]triazin-6-yl)-4-fluorophenyl) pyrrolidine-1-carboxamide]
solubility at 1 h [2]: 10 to 83 µM (≈ 4.09 to 34 µg/mL)
EC50 (Trypanosoma cruzi [3]): 5.01 to 631 nM

CN1CCN(Cc2ccc(-c3cnc4nc(-c5cc(NC(=O)N6CCCC6)ccc5F)cn4n3)cc2)CC1 [Example 59, N-(4-fluoro-3-(2-(4-((4-methylpiperazin-1-yl)methyl)phenyl)imidazo [1,2-b][1,2,4]triazin-6-yl)phenyl)pyrrolidine-1-carboxamide]
EC50 at 96 h [4]: 3980 to 15800 nM
